The record followed here is patent US20230026856A1, “HETEROCYCLIC COMPOUNDS AND METHODS OF USE THEREOF” (SPARCBIO LLC, priority 2020, published 2023).

In one experiment the test system is A549. Description: Cell proliferation assay panel (Cell Titer-Glo), A549. The experiment is classed as cell-based. To be noted: Homo sapiens, 72 hr. The procedure:
(§1) Potency of compounds was determined in cell proliferation assays in a panel of cancer cell lines. Cells were seeded in 384-well plates (Corning, Cat. #3765) at specified densities in 40 μL of culture medium and incubated overnight at 37° C. in a 5% CO2 incubator (culture conditions). With a robotic dispenser, serially diluted test compounds were added in a volume of 20 nL DMSO to wells in the culture plate to achieve the final desired concentrations of test compounds, and the cells were further incubated in culture conditions for 72 hr. The assay was terminated by addition of 25 μL of Cell Titer-Glo reagent (Promega, Madison, Wis.) to each well. Contents were mixed, the plate was incubated for 10 min at room temperature and luminescence was measured. The IC50 value of each test compound was calculated with XLFit curve fitting software. Results are shown in Table 4. ‘+++’ indicates IC50 values ≤300 nM, ‘++’ indicates IC50 values between 300 nM-3 μM, and ‘+’ indicates IC50 values ≥3 μM.
In general terms: ATP-based viability assays read luminescence as a measure of living cells.

Another experiment deals with NCI-H358. The experiment can be described thus: Cell proliferation assay panel (Cell Titer-Glo), NCI-H358. To be noted: Homo sapiens, 72 hr. The class given is cell-based. On the procedure:
as §1

In a further experiment the test system is NCI-H2122. The experiment can be described thus: Cell proliferation assay panel (Cell Titer-Glo), NCI-H2122. The experiment is classed as cell-based. Particulars: Homo sapiens, 72 hr. The procedure: as §1
The test system of experiment [1] is Phosphorylation of ERK in NCI-H358 cells. The experiment can be described thus: pERK assay, Method II (homogeneous TR-FRET, phospho-ERK Thr202/Tyr204). The class given is cell-based. Particulars: Homo sapiens, 4 hr compound treatment. The procedure:
Method II. Phosphorylation of ERK was assessed by a homogeneous TR-FRET assay (Advanced phospho-ERK (Thr202/Tyr204) cellular kit; Cat. #64AERPEH, Cisbio). In brief, NCI-H358 cells were seeded in a 384-well culture plate at a density of 6000 cells in 40 μL medium/well and grown overnight at 37° C. and 5% CO2. Each test compound was dosed in duplicate in a 10-dose 3-fold titration starting at 10 μM or 2 μM. The culture plate was then incubated for 4 hr in the incubator. At the end of the compound treatment, the medium was removed, 35 μL of lysis buffer was added to each well, and the plate was agitated on a plate shaker for 40 mins at 4° C. An antibody cocktail of phospho-ERK1/2 Eu Cryptate antibody and Phospho-ERK1/2 d2 antibody was prepared by separately diluting the antibodies 20-fold with detection buffer and then mixing them together. 3.4 μL of antibody cocktail was dispensed to each well of an empty 384-well white ProxiPlus assay plate (Perkin Elmer), and the plate briefly centrifuged. 13.6 μL of cell lysate was then added to the antibody-containing wells, and the plate was briefly centrifuged and then incubated 2 hr at room temperature. The plate was read on a fluorescence plate reader (Envision2104, Perkin Elmer), with an excitation wavelength of 337 nm and emission wavelengths of 615 nm and 665 nm. The IC50 value of each test compound was calculated with XLFit curve fitting software. Results are shown in Table 6. ‘+++’ indicates IC50 values ≤300 nM, ‘++’ indicates IC50 values between 300 nM-3 μM, and ‘+’ indicates IC50 values ≥3 μM.

Another experiment has as its system NCI-H2030. The experiment can be described thus: Cell proliferation assay panel (Cell Titer-Glo), NCI-H2030. The experiment is classed as cell-based. To be noted: Homo sapiens, 72 hr. On the procedure:
as §1

The next experiment has as its system SW1573. Description: Cell proliferation assay panel (Cell Titer-Glo), SW1573. The class given is cell-based. Particulars: Homo sapiens, 72 hr. On the procedure:
as §1

Another experiment has as its system NCI-H358 cells. The experiment can be described thus: 3D cell proliferation assay (Cell Titer-Glo 3D). The class given is cell-based. Particulars: Homo sapiens, NCI-H358, 168 h, NCI-H358, 3D (ultra-low attachment); 7 days. On the procedure:
NCI-H358 cells (ATCC® CRL-5807™) were plated in a 384-well Black/Clear Round Bottom Ultra-Low Attachment Microplate (Corning) in medium (RPMI-1640+10% FBS) at a density of 1000 cells in 50 μL per well, then incubated overnight at 37° C. and 5% CO2. Cells were treated with test compounds at 9 concentrations within a specified concentration range (e.g., 0.5 nM-10 μM) for generation of dose response curves. Test compounds were prepared by 1:3 serial dilution in DMSO from a specified starting concentration (e.g., 20 μM, 2 μM or 0.2 μM) and then added to wells of the assay plate in a total volume of 150 nL DMSO. The cells were further incubated at 37° C. and 5% CO2 for 7 days. Cell viability was assessed by adding 40 μL of Cell Titer-Glo® 3D reagent (Cat. No.: G9683, Promega) to each well and reading luminescence after mixing and incubation of the samples. The IC50 value of each test compound was calculated with XLFit curve fitting software.

The next experiment relates to KYSE-410. The experiment can be described thus: Cell proliferation assay panel (Cell Titer-Glo), KYSE-410. The class given is cell-based. Particulars: Homo sapiens, 72 hr. On the procedure: as §1
In the next experiment the test system is NCI-H1373. Description: Cell proliferation assay panel (Cell Titer-Glo), NCI-H1373. The class given is cell-based. To be noted: Homo sapiens, 72 hr. The procedure:
as §1

A further experiment has as its target KRAS G12C protein (Homo sapiens, UniProt P01116, G12C). The experiment can be described thus: Nucleotide exchange assay, Method III (TR-FRET, association of KRAS G12C with Raf-RBD, SOS1-mediated exchange). The experiment is classed as biochemical. To be noted: overnight (18 hr) incubation with GDP-bound KRAS G12C. The method, boiled down: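 Compounds in 11-point 3-fold dilutions were preincubated 18 h at 23 °C with GDP-bound His-tagged KRAS G12C (25 nM in the 2× mix). SOS1/GTP was then added for 1 h at 23 °C, followed by FLAG-Raf-RBD with Tb-anti-FLAG/D2-anti-His for 2 h at room temperature. IC50 values came from non-linear regression of the TR-FRET signal.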
(In general: TR-FRET usually uses a lanthanide donor and a delayed reading to cut background.)

Another experiment deals with MIA PaCa-2. The experiment can be described thus: Cell proliferation assay panel (Cell Titer-Glo), MIA PaCa-2. The class given is cell-based. To be noted: Homo sapiens, MIA PaCa-2, 72 h. On the procedure: as §1

Sequence of KRAS G12C protein (P01116 1-188 isoform P01116-2 G12C): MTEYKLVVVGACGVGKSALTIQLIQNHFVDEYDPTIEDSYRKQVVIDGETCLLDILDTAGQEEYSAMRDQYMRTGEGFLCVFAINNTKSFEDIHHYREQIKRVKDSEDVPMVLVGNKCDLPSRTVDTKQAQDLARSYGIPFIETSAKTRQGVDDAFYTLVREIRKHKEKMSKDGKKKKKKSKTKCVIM

On to `C=CC(=O)N1CCN(c2c(S(C)(=O)=O)c(=O)n(-c3c(C)ccnc3C(C)C)c3nc(-c4c(O)cccc4F)c(F)cc23)CC1` (single isomer, unassigned) [123 (Isomer A), 4-(4-acryloylpiperazin-1-yl)-6-fluoro-7-(2-fluoro-6-hydroxyphenyl)-1-(2-isopropyl-4-methylpyridin-3-yl)-3-(methylsulfonyl)-1,8-naphthyridin-2(1H)-one], for which the IC50 in the experiment with A549 was at least 3000 nM; in the experiment on NCI-H358, at most 300 nM; in the experiment with NCI-H2122, 300 to 3000 nM; in experiment [1], at most 300 nM; with NCI-H2030, 300 to 3000 nM; with SW1573, at least 3000 nM. Further, the IC50 with NCI-H358 cells is at most 100 nM; with KYSE-410, at least 3000 nM; with NCI-H1373, at least 3000 nM; against KRAS G12C protein, at most 300 nM; in the experiment on MIA PaCa-2, 300 to 3000 nM.

The term IC50 denotes the midpoint of a concentration-inhibition curve. A low value points to greater potency in that assay.
